Source: ChEMBL document CHEMBL1909046, “DrugMatrix in vitro pharmacology data”

Biological target: Melanocortin receptor 5 (Homo sapiens, UniProt P33032); also: in other assays of this panel Not Active means under 50% inhibition at 10 µM
Type: cell membranes, HEK293, Membrane
Conditions: hek293

Sequence of Melanocortin receptor 5 (P33032 whole entry): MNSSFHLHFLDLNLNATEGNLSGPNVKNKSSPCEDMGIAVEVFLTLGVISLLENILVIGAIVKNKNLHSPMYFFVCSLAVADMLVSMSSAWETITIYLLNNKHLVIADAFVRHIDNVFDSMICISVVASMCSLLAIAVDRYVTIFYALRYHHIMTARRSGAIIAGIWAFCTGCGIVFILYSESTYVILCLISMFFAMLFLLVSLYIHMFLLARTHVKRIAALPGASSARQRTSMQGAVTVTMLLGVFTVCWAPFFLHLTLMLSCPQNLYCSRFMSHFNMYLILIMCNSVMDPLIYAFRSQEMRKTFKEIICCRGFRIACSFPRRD

Compound | IC50 | Ki
CCCCNc1ccc(C(=O)OCCN(C)C)cc1 [TETRACAINE] | Not Active | –
Cn1c(=O)c2nc[nH]c2n(C)c1=O.O [THEOPHYLLINE] | Not Active | –
CS(=O)(=O)c1ccc([C@@H](O)[C@@H](CO)NC(=O)C(Cl)Cl)cc1 [THIAMPHENICOL] | Not Active | –
CCN(CC)CCNC(=O)c1cc(S(C)(=O)=O)ccc1OC [TIAPRIDE] | Not Active | –
Clc1ccccc1CN1CCc2sccc2C1 [TICLOPIDINE] | Not Active | –
NC1CCN(c2nc3c(cc2F)c(=O)c(C(=O)O)cn3-c2ccc(F)cc2F)C1 (stereo not drawn) [TOSUFLOXACIN] | Not Active | –
O=C(Nc1ccc(Br)cc1)c1cc(Br)cc(Br)c1O [TRIBROMSALAN] | Not Active | –
CC(c1cc2ccccc2s1)N(O)C(N)=O (stereo not drawn) [ZILEUTON] | Not Active | –
MANGANESE CHLORIDE ANHYDROUS | Not Active | Not Active
SODIUM ORTHOVANAD | Not Active | Not Active

Biological target: T1, C-X-C chemokine receptor type 2 (Homo sapiens, UniProt P25025); also: in other assays of this panel Not Active means under 50% inhibition at 10 µM
T1 sequence (P25025 whole entry): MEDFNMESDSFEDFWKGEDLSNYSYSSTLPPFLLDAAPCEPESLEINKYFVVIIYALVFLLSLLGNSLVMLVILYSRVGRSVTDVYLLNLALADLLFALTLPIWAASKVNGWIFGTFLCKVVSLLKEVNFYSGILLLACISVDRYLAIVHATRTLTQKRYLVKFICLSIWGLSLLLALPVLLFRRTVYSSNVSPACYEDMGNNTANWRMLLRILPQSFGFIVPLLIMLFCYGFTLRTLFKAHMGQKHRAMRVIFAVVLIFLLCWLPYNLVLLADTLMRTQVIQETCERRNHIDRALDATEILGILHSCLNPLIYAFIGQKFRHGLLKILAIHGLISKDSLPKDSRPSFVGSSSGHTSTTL
Type: cell membranes, Membrane
Conditions: cho-k1

Compound | IC50 | Ki
CCCCNc1ccc(C(=O)OCCN(C)C)cc1 [TETRACAINE] | Not Active | –
Cn1c(=O)c2nc[nH]c2n(C)c1=O.O [THEOPHYLLINE] | Not Active | –
CS(=O)(=O)c1ccc([C@@H](O)[C@@H](CO)NC(=O)C(Cl)Cl)cc1 [THIAMPHENICOL] | Not Active | –
CCN(CC)CCNC(=O)c1cc(S(C)(=O)=O)ccc1OC [TIAPRIDE] | Not Active | –
Clc1ccccc1CN1CCc2sccc2C1 [TICLOPIDINE] | Not Active | –
NC1CCN(c2nc3c(cc2F)c(=O)c(C(=O)O)cn3-c2ccc(F)cc2F)C1 (stereo not drawn) [TOSUFLOXACIN] | Not Active | –
O=C(Nc1ccc(Br)cc1)c1cc(Br)cc(Br)c1O [TRIBROMSALAN] | Not Active | –
CC(c1cc2ccccc2s1)N(O)C(N)=O (stereo not drawn) [ZILEUTON] | Not Active | –
MANGANESE CHLORIDE ANHYDROUS | Not Active | Not Active
SODIUM ORTHOVANAD | Not Active | Not Active

Biological target: Insulin receptor (Rattus norvegicus, UniProt P15127); also: in other assays of this panel Not Active means under 50% inhibition at 10 µM
Type: cell membranes, Wistar, Liver, Membrane
Conditions: not given

Sequence of Insulin receptor (P15127 27-759 limits assumed): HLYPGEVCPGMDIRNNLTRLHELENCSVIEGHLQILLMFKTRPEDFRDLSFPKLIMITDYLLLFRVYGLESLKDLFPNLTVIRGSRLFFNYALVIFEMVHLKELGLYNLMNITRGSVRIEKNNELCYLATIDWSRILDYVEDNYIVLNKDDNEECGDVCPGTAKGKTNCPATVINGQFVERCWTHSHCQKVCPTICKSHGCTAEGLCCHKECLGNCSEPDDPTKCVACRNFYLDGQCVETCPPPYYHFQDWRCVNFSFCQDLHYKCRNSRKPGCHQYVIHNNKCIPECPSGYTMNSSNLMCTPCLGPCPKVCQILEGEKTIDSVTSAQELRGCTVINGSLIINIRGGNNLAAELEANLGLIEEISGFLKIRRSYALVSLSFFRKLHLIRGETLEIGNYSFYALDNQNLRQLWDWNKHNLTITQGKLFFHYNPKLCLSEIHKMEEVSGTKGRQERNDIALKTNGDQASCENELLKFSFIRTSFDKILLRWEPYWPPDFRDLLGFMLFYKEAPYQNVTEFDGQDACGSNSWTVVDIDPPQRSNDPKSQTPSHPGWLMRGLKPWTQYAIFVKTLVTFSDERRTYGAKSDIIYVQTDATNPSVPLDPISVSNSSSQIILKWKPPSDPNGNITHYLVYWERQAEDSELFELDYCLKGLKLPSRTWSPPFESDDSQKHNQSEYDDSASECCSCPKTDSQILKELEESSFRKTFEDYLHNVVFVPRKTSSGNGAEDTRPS
Sequence of Insulin receptor (P15127 764-1383 limits assumed): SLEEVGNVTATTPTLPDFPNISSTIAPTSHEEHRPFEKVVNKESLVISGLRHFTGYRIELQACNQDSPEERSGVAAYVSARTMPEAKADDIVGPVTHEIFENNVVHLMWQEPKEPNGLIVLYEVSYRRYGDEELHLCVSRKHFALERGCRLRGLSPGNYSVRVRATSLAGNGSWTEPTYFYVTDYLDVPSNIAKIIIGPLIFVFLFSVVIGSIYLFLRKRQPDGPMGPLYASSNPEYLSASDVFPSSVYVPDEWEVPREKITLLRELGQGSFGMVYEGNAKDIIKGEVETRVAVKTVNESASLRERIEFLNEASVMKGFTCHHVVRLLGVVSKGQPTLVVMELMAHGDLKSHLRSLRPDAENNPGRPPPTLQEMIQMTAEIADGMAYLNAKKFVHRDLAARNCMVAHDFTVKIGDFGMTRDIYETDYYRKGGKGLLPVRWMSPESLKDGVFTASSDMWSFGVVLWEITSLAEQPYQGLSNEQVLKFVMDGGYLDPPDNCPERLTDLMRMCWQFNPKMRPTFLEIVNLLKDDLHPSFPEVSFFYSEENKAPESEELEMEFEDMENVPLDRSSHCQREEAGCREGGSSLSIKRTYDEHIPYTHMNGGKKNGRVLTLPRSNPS

Compound | IC50 | Ki
CCCCNc1ccc(C(=O)OCCN(C)C)cc1 [TETRACAINE] | Not Active | –
Cn1c(=O)c2nc[nH]c2n(C)c1=O.O [THEOPHYLLINE] | Not Active | –
CS(=O)(=O)c1ccc([C@@H](O)[C@@H](CO)NC(=O)C(Cl)Cl)cc1 [THIAMPHENICOL] | Not Active | –
CCN(CC)CCNC(=O)c1cc(S(C)(=O)=O)ccc1OC [TIAPRIDE] | Not Active | –
Clc1ccccc1CN1CCc2sccc2C1 [TICLOPIDINE] | Not Active | –
NC1CCN(c2nc3c(cc2F)c(=O)c(C(=O)O)cn3-c2ccc(F)cc2F)C1 (stereo not drawn) [TOSUFLOXACIN] | Not Active | –
O=C(Nc1ccc(Br)cc1)c1cc(Br)cc(Br)c1O [TRIBROMSALAN] | Not Active | –
CC(c1cc2ccccc2s1)N(O)C(N)=O (stereo not drawn) [ZILEUTON] | Not Active | –
MANGANESE CHLORIDE ANHYDROUS | Not Active | Not Active
SODIUM ORTHOVANAD | Not Active | Not Active

Biological target: T2, Cholecystokinin receptor type A (Homo sapiens, UniProt P32238); also: in other assays of this panel Not Active means under 50% inhibition at 10 µM
T2 sequence (P32238 whole entry): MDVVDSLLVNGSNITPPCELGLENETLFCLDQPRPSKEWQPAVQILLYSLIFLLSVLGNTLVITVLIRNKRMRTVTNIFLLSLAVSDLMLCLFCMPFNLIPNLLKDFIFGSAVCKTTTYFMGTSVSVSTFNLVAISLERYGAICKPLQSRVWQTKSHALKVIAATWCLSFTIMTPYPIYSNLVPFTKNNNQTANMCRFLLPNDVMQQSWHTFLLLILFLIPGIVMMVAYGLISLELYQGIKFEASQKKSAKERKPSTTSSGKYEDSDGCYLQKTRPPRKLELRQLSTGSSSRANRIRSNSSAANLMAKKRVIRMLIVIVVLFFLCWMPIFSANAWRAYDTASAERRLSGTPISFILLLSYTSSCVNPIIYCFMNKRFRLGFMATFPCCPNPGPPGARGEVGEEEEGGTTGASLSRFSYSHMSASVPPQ
Type: cell membranes, Membrane
Conditions: 1321-n1

Compound | IC50 | Ki
CCCCNc1ccc(C(=O)OCCN(C)C)cc1 [TETRACAINE] | Not Active | –
Cn1c(=O)c2nc[nH]c2n(C)c1=O.O [THEOPHYLLINE] | Not Active | –
CS(=O)(=O)c1ccc([C@@H](O)[C@@H](CO)NC(=O)C(Cl)Cl)cc1 [THIAMPHENICOL] | Not Active | –
CCN(CC)CCNC(=O)c1cc(S(C)(=O)=O)ccc1OC [TIAPRIDE] | Not Active | –
Clc1ccccc1CN1CCc2sccc2C1 [TICLOPIDINE] | Not Active | –
NC1CCN(c2nc3c(cc2F)c(=O)c(C(=O)O)cn3-c2ccc(F)cc2F)C1 (stereo not drawn) [TOSUFLOXACIN] | Not Active | –
O=C(Nc1ccc(Br)cc1)c1cc(Br)cc(Br)c1O [TRIBROMSALAN] | Not Active | –
CC(c1cc2ccccc2s1)N(O)C(N)=O (stereo not drawn) [ZILEUTON] | Not Active | –
MANGANESE CHLORIDE ANHYDROUS | Not Active | Not Active
SODIUM ORTHOVANAD | Not Active | Not Active

Tested on: not listed separately
Test: DRUGMATRIX: Platelet-Derived Growth Factor (PDGF) radioligand binding (ligand: [125I] PDGF)
Type: cell-based
Conditions: nih3t3; Not Active = under 50% inhibition at 10 µM

Compound | IC50 | Ki
CCCCNc1ccc(C(=O)OCCN(C)C)cc1 [TETRACAINE] | Not Active | Not Active
Cn1c(=O)c2nc[nH]c2n(C)c1=O.O [THEOPHYLLINE] | Not Active | Not Active
CS(=O)(=O)c1ccc([C@@H](O)[C@@H](CO)NC(=O)C(Cl)Cl)cc1 [THIAMPHENICOL] | Not Active | Not Active
CCN(CC)CCNC(=O)c1cc(S(C)(=O)=O)ccc1OC [TIAPRIDE] | Not Active | Not Active
Clc1ccccc1CN1CCc2sccc2C1 [TICLOPIDINE] | Not Active | Not Active
NC1CCN(c2nc3c(cc2F)c(=O)c(C(=O)O)cn3-c2ccc(F)cc2F)C1 (stereo not drawn) [TOSUFLOXACIN] | Not Active | Not Active
O=C(Nc1ccc(Br)cc1)c1cc(Br)cc(Br)c1O [TRIBROMSALAN] | Not Active | Not Active
CC(c1cc2ccccc2s1)N(O)C(N)=O (stereo not drawn) [ZILEUTON] | Not Active | Not Active
MANGANESE CHLORIDE ANHYDROUS | Not Active | Not Active
SODIUM ORTHOVANAD | Not Active | Not Active

Biological target: Delta-type opioid receptor (Homo sapiens, UniProt P41143); also: in other assays of this panel Not Active means under 50% inhibition at 10 µM
Type: cell membranes, Membrane
Conditions: hek293

Sequence of Delta-type opioid receptor (P41143 whole entry): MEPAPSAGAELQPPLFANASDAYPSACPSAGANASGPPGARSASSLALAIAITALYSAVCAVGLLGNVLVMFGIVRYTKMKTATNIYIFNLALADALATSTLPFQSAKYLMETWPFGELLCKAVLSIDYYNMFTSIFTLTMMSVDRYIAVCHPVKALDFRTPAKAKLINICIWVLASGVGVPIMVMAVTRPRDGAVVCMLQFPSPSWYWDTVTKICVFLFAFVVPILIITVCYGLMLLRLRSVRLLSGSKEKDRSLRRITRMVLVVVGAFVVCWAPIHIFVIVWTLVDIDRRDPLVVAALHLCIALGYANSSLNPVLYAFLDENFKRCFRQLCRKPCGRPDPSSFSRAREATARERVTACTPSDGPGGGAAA

Compound | IC50 | Ki
CCCCNc1ccc(C(=O)OCCN(C)C)cc1 [TETRACAINE] | Not Active | –
Cn1c(=O)c2nc[nH]c2n(C)c1=O.O [THEOPHYLLINE] | Not Active | –
CS(=O)(=O)c1ccc([C@@H](O)[C@@H](CO)NC(=O)C(Cl)Cl)cc1 [THIAMPHENICOL] | Not Active | –
CCN(CC)CCNC(=O)c1cc(S(C)(=O)=O)ccc1OC [TIAPRIDE] | Not Active | –
Clc1ccccc1CN1CCc2sccc2C1 [TICLOPIDINE] | Not Active | –
NC1CCN(c2nc3c(cc2F)c(=O)c(C(=O)O)cn3-c2ccc(F)cc2F)C1 (stereo not drawn) [TOSUFLOXACIN] | Not Active | –
O=C(Nc1ccc(Br)cc1)c1cc(Br)cc(Br)c1O [TRIBROMSALAN] | Not Active | –
CC(c1cc2ccccc2s1)N(O)C(N)=O (stereo not drawn) [ZILEUTON] | Not Active | –
MANGANESE CHLORIDE ANHYDROUS | Not Active | Not Active
SODIUM ORTHOVANAD | Not Active | Not Active

Tested on: not listed separately
Test: DRUGMATRIX: Interleukin IL-1 radioligand binding (ligand: [125I] interleukin 1beta)
Type: cell membranes, Membrane
Conditions: nih3t3; Not Active = under 50% inhibition at 10 µM

Compound | IC50 | Ki
CCCCNc1ccc(C(=O)OCCN(C)C)cc1 [TETRACAINE] | Not Active | Not Active
Cn1c(=O)c2nc[nH]c2n(C)c1=O.O [THEOPHYLLINE] | Not Active | Not Active
CS(=O)(=O)c1ccc([C@@H](O)[C@@H](CO)NC(=O)C(Cl)Cl)cc1 [THIAMPHENICOL] | Not Active | Not Active
CCN(CC)CCNC(=O)c1cc(S(C)(=O)=O)ccc1OC [TIAPRIDE] | Not Active | Not Active
Clc1ccccc1CN1CCc2sccc2C1 [TICLOPIDINE] | Not Active | Not Active
NC1CCN(c2nc3c(cc2F)c(=O)c(C(=O)O)cn3-c2ccc(F)cc2F)C1 (stereo not drawn) [TOSUFLOXACIN] | Not Active | Not Active
O=C(Nc1ccc(Br)cc1)c1cc(Br)cc(Br)c1O [TRIBROMSALAN] | Not Active | Not Active
CC(c1cc2ccccc2s1)N(O)C(N)=O (stereo not drawn) [ZILEUTON] | Not Active | Not Active
MANGANESE CHLORIDE ANHYDROUS | Not Active | Not Active
SODIUM ORTHOVANAD | Not Active | Not Active

Biological target: T3, 5-hydroxytryptamine receptor 2C (Homo sapiens, UniProt P28335)
T3 sequence (P28335 whole entry): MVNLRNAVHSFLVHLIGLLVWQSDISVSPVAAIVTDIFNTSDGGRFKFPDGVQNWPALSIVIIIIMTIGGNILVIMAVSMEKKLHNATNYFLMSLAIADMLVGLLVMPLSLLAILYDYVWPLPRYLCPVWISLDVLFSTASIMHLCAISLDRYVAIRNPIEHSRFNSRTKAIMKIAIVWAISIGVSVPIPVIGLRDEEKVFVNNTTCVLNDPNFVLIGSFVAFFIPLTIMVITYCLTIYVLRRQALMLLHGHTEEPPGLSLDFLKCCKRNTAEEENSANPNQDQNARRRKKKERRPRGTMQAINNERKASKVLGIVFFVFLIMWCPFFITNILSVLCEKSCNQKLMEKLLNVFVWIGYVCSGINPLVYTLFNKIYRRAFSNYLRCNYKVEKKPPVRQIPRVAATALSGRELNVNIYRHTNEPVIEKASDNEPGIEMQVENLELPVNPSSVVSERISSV
Test: DRUGMATRIX: Serotonin (5-Hydroxytryptamine) 5-HT2C radioligand binding (ligand: [3H] Mesulergine)
Type: cell membranes, CHO-K1, Membrane
Conditions: Not Active = under 50% inhibition at 10 µM; read-out: IC50

Compound | IC50 [µM]
CCCCNc1ccc(C(=O)OCCN(C)C)cc1 [TETRACAINE] | 3.27

Same assay, conditions: Not Active = under 50% inhibition at 10 µM; read-out: Ki

Compound | Ki [µM]
CCCCNc1ccc(C(=O)OCCN(C)C)cc1 [TETRACAINE] | 1.71

Same assay, conditions: cho-k1; Not Active = under 50% inhibition at 10 µM

Compound | IC50 | Ki
Cn1c(=O)c2nc[nH]c2n(C)c1=O.O [THEOPHYLLINE] | Not Active | –
CS(=O)(=O)c1ccc([C@@H](O)[C@@H](CO)NC(=O)C(Cl)Cl)cc1 [THIAMPHENICOL] | Not Active | –
CCN(CC)CCNC(=O)c1cc(S(C)(=O)=O)ccc1OC [TIAPRIDE] | Not Active | –
Clc1ccccc1CN1CCc2sccc2C1 [TICLOPIDINE] | Not Active | –
NC1CCN(c2nc3c(cc2F)c(=O)c(C(=O)O)cn3-c2ccc(F)cc2F)C1 (stereo not drawn) [TOSUFLOXACIN] | Not Active | –
O=C(Nc1ccc(Br)cc1)c1cc(Br)cc(Br)c1O [TRIBROMSALAN] | Not Active | –
CC(c1cc2ccccc2s1)N(O)C(N)=O (stereo not drawn) [ZILEUTON] | Not Active | –
MANGANESE CHLORIDE ANHYDROUS | Not Active | Not Active
SODIUM ORTHOVANAD | Not Active | Not Active
